Our source for the inhibition, Kd and Ki values is ChEMBL document CHEMBL2069257, “A fluorescent reporter of ATP binding-competent receptor kinases” (Bioorg Med Chem Lett, 2012).

Calls of active or inactive are those of the source. The calls are words filed in the database; no cut-off is given here.

The target in assay [1] is Proto-oncogene tyrosine-protein kinase Src (Homo sapiens) (UniProt P12931). Put plainly: Inhibition of SRC using biotinylated HNRNPK as substrate at 0.2 to 6 uM by blotting method.
Sequence of Proto-oncogene tyrosine-protein kinase Src (Homo sapiens) (P12931 2-536 limits assumed): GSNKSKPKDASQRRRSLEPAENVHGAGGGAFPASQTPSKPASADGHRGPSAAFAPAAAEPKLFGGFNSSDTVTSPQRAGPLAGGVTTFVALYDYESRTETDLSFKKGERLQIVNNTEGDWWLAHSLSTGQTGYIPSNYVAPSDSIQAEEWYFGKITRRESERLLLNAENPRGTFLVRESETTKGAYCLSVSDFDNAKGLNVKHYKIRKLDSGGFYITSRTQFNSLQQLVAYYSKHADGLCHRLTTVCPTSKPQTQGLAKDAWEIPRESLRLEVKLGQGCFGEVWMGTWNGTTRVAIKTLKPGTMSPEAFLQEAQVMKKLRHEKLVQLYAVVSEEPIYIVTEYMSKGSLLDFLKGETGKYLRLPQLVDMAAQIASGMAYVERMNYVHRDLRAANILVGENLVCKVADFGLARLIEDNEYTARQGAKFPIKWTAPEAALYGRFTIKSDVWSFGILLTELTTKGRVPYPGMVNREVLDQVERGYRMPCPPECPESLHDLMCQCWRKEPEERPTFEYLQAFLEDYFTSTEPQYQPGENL
The target of assay [2] is T1, Receptor tyrosine-protein kinase erbB-2 (Homo sapiens, UniProt P04626). Put plainly: Binding affinity to full-length/His-tagged ERBB2 UV-vis emission spectroscopy.
T1 sequence (P04626 whole entry): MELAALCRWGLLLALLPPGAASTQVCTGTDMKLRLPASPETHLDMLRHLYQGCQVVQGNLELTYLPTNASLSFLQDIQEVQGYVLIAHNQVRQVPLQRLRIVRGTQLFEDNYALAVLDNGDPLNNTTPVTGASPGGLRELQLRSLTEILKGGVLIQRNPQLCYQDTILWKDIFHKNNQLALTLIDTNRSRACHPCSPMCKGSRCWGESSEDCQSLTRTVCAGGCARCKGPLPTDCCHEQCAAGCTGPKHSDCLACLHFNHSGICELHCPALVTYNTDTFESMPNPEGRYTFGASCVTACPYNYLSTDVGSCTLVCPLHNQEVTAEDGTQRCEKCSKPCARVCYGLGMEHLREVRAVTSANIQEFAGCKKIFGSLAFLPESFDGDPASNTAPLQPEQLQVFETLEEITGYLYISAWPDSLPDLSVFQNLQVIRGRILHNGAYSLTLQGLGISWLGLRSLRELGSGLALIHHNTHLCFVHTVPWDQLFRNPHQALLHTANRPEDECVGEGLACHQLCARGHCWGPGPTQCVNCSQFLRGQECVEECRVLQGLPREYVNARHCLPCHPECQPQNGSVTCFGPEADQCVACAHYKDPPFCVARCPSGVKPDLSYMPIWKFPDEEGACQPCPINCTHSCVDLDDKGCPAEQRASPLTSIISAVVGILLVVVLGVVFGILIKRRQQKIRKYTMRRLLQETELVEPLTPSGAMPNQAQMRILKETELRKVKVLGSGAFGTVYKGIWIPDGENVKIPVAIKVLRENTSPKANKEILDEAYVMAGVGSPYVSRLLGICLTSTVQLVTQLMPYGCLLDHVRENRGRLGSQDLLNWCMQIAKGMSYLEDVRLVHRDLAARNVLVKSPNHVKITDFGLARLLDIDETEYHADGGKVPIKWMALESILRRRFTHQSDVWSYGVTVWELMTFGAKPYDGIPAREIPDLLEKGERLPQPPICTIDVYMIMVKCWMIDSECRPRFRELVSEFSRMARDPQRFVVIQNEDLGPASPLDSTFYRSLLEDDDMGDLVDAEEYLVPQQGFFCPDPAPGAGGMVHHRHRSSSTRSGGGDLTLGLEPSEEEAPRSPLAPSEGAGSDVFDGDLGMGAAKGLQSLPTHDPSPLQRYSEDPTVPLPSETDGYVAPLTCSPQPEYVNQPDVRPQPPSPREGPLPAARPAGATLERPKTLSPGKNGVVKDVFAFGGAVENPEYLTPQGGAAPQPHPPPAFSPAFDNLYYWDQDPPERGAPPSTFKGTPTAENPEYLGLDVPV
The target in assay [3] is T1, Receptor tyrosine-protein kinase erbB-2. The assay can be described thus: Inhibition of full-length/His-tagged ERBB2 overexpressed in human MCF7 cells assessed as inhibition of AKT phosphorylation at 0.2 to 6 uM after 12 hrs by Western blot analysis. It counts as cell-based.
Assay [4] concerns the target Proto-oncogene tyrosine-protein kinase Src (Homo sapiens) (UniProt P12931). The assay can be described thus: Inhibition of SRC using biotinylated HNRNPK as substrate up to 6 uM by blotting method.
In assay [5] the target is T1, Receptor tyrosine-protein kinase erbB-2. Put plainly: Inhibition of truncated soluble ERBB2 expressed in human MCF7 cell lysate at 1 to 10 uM after mCherry fluorescence assay pretreated with canertinib before lysis. It is filed as cell-based.
Assay [6] shares this target. Put plainly: Inhibition of truncated soluble ERBB2 expressed in human MCF7 cell lysate at 1 to 10 uM after mCherry fluorescence assay. It counts as cell-free.
The target is the same in assay [7]. The assay can be described thus: Inhibition of ERBB2 autophosphorylation Tyr 1139 residue in human BT474 cells at 2 to 14 uM after 12 hrs by Western blotting.

In the case of `Cc1ccc(-c2nn(C(C)(C)C)c3ncnc(N)c23)cc1`, the inhibition result in assay [1] is “Active”.
In the case of `CN(C)c1ccc(/C=C/c2ccc3ncnc(NCc4ccccc4)c3c2)cc1`, the Kd in assay [2] was found to be 2900 nM. The inhibition entry in assay [3], in assay [4] and in assay [5] was “inactive” throughout. Moreover, the inhibition result in assay [6] is “Active”. Moreover, in assay [7], the inhibition constant Ki turned out to be 3100 nM.
